Literature values as cited in patent publication US8039024B2, “Device and composition for the delivery of a preservative-free balsamic cream” (APR Applied Pharma Research, S.A., priority 2008, dated 2011).

Conditions: sprayed directly onto the nasal mucosa of dogs and humans

Structure (SMILES) | decongestant action
CC1CCC(C(C)C)C(O)C1 (centres unmarked) [menthol, Menthol] | no decongestant action
CC12CCC(CC1=O)C2(C)C (centres unmarked) [camphor, Camphor] | no decongestant action
